Here are results for 1 compound from patent US12685733B2, “Indole molecules and use thereof in the inhibition of DNA polymerases” (BioVentures, LLC, priority 2019, dated 2026).

Test [1] deals with T1, hpol η (Homo sapiens, UniProt Q9Y253).
T1 construct: hpol η (residues 1-437); made in house
T1 sequence (Q9Y253 1-437): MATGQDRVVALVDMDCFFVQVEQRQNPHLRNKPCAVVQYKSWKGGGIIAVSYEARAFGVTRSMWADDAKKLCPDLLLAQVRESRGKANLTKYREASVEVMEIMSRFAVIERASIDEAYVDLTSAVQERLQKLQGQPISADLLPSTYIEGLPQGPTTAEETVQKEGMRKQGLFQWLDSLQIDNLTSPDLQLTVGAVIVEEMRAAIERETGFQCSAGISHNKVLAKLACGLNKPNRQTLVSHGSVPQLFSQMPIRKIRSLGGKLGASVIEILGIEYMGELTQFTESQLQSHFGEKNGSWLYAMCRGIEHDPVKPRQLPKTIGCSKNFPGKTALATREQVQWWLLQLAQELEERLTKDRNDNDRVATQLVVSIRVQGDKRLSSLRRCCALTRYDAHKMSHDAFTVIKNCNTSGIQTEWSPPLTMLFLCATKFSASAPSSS
Nature of the test: Gel-based primer extension assay. Format: biochemical. The settings on record: 10 μM; 2 nM hpol η.

Test [2] concerns hpol κ-proficient HAP-1 cells. Nature of the test: Clonogenic survival assay. The test is classed as cell-based, human. Here is the method:
(§1) HAP-1 and hpol κ^KO cells were purchased from Horizons Discovery Group LLC (Cambridge, UK). The company generated the Hap1 cells using CRISPR-Cas9 technology and the elimination of kappa expression was confirmed by Sanger sequence genome editing. We further confirmed the elimination of hpol κ protein expression by Western blotting (data not shown). Hap1 cells were cultured in Iscove's modified Dulbecco's medium (IMDM; Invitrogen, CA, USA) supplemented with 10% (v/v) fetal bovine serum (FBS; Atlas Biologicals, CO, USA) and 1% (v/v) antibiotic/antimycotic solution (Sigma-Aldrich, MO, USA).T98G cells were purchased from ATCC (American Type Culture Collection, VA, USA). T98G cells were cultured in MEM (Minimum Essential Medium) (Invitrogen, CA, USA) supplemented with 10% (v/v) FBS (Fetal Bovine Serum, Atlas Biologicals, CO, USA) and antibiotic/antimycotic solution (1%, v/v) (Sigma-Aldrich, MO, USA). NT2 cells were kindly provided by Dr. Michael Borrelli (University of Arkansas for Medical Sciences, AR, USA). NT2 cells were cultured in DMEM/F12 (Dulbecco's Modified Eagle Medium) supplemented with 10% (v/v) FCS (Fetal Calf Serum) and antibiotic/antimycotic solution (1%) (Sigma-Aldrich, MO, USA).
(§2) To measure the clonogenic ability, cells were plated (500 cells per well) in 6-well dishes. In the case of HAP-1 cells, cells were treated the following day after plating, with temozolomide (TMZ) (0, 1, 5, 50, 125 and 250 μM) alone or in combination with UAMS-48 (0.1 and 0.5 μM) for 1 hour. In the case of T98G and NT2 cells, treatment was done on the following day of plating, with increasing concentrations of TMZ alone or in combination with UAMS-48 (50 nM) for 3 hrs. T98G and NT2 cells were treated with increasing concentrations of UAMS-48 for 3 hrs. After treatment, cells were cultured in fresh IMDM supplemented with 10% FBS for 10 days. The colonies were gently washed with 1×PBS, fixed with 3.7% (v/v) formaldehyde for 20 mins at RT and stained with crystal violet solution (Sigma-Aldrich, MO, USA) for 30 mins at RT.
(§3) The fixed crystal-violet stained colonies in each 6-well plate were examined under an EVOS XL Core imaging system (Thermo Fisher Scientific) under bright-field, and the colonies were inspected manually. […] Color images of each 6-well plate were captured and opened for processing using the Fiji version of the freely available software ImageJ. Setting the appropriate threshold for counting colonies for each cell type, corresponding to the respective radii calculated previously, the colonies were counted using the Colony Area plugin of ImageJ. Manual counting was performed on a few wells picked randomly, and the colony count so obtained was tallied with the number obtained using ImageJ, to ensure they matched reasonably. All experiments were performed in triplicate, and the colony number for each well was expressed as the mean (±standard deviation). The results were plotted to generate a dose response curve for TMZ treatment using the software Graphpad Prism, where the mean number of colonies was plotted along the Y-axis, and the TMZ concentration along the X-axis. Bar charts comparing the mean number of colonies as a function of the various conditions were also plotted for both cell types. Combination index values were calculated using the Chou-Talalay method (Chou 2010).

The subject of test [3] is hpol κ-deficient HAP-1 cells. The experiment in a line: Clonogenic survival assay. Format: cell-based, human. Here is the method: as §1, §2, §3
For test [4], the target named is T1, hpol η. The experiment in a line: Fluorescence-based DNA polymerase activity assay. Format: biochemical. Conditions: for IC50: 95% confidence interval in parentheses, read-out: IC50 for inhibition of hpol η. The text has this: The impact of IAG-10 on the affinity of hpol κ for DNA was an important insight and one that had not been observed previously with MK-886. It was reasoned that decreasing the concentration of either enzyme or DNA, might affect the IC50 value by shifting the equilibrium away from the formation of binary hpol c: DNA complex and toward the enzyme-inhibitor complex. To investigate this idea, the concentration of hpol and p/t-DNA was varied in the reaction mixture and measured the IC50 value for IAG-10. Decreasing the enzyme and DNA in solution led to a dramatic decrease in the IC50 for IAG-10 against hpol κ (FIG. 4A). […] Then, similar experiments were performed with hpol η by varying the concentration of enzyme and DNA in the reaction mixture an determining the IC50 value for IAG-10-mediated inhibition.

In the next test the target is T2, hRev1 (Homo sapiens, UniProt Q9UBZ9).
T2 construct: hRevl (residues 330-833); made in house
T2 sequence (Q9UBZ9 330-833): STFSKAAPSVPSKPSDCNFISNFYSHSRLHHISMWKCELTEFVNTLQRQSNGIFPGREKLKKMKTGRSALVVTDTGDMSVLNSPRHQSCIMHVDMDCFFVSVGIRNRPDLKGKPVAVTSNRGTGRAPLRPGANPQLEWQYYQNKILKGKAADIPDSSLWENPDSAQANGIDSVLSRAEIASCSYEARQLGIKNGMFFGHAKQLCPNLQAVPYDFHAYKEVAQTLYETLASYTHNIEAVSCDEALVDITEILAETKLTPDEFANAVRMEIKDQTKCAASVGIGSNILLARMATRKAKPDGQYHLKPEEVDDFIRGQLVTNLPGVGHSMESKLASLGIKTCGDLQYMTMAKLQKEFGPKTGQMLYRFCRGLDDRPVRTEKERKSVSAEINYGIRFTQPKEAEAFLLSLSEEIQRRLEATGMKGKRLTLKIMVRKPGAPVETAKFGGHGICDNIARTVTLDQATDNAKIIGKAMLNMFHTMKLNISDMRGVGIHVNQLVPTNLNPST
Nature of the test: Gel-based primer extension assay. Format: biochemical. Conditions: 10 μM; 10 nM Rev1.

In the next test the target is T3, hpol β (Homo sapiens, UniProt P06746).
T3 construct: gift of Dr. Samuel Wilson (NIEHS)
The experiment in a line: Fluorescence-based polymerase assay, other pol families. The test is classed as biochemical. Conditions: 10 μM; 1 nM hpol β (X-family).

Read-outs that look alike come from different tables or passages of the source.

A word on the IC50: it is the concentration needed to halve the response being measured. On to `Cl.[H]/N=C(\N)NN=Cc1cn(C(=O)c2cccc3ccccc23)c2ccc(Cl)cc12` [IAG-10, (E)-2-((1-(1-naphthoyl)-5-chloro-1H-indol-3-y1)methylene)hydrazine-1-carboximidamide hydrochloride], for which the results for the “polymerase activity relative to DMSO control” value at hpol η [1], at hRev1 and at hpol β were “only hpol κ was inhibited”, “only hpol κ was inhibited” and “only hpol κ activity was inhibited”, respectively. Also, the “colony formation, compound alone” value in test [2] (0.5 μM IAG-10) and in test [3] (0.5 μM IAG-10) was “does not impair colony formation” throughout. Also, the “colonies formed relative to untreated cells” value in test [2] (250 μM TMZ + 0.5 μM IAG-10 co-treatment, 1 hour) is on record as ~ 40%. Moreover, the “colony forming ability, co-treatment over TMZ alone” value in test [3] (TMZ + 0.5 μM IAG-10) is “did not show any significant reduction in colony forming ability”. In addition, the IC50 at hpol η [4] (2 nM DNA) came to 22.5 µM; on hpol η [4] (50 nM DNA), 14.3 µM. For the same compound, the “Michaelis constant, hpol η” value at hpol η [4] (steady-state kinetics with increasing inhibitor concentration) was “linear increase”. Further, the “turnover number (kcat), hpol η” value on hpol η [4] (steady-state kinetics with varying inhibitor concentration) is given as “no measurable change”.
